The record followed here is US10473670B2 (University of Kentucky Research Foundation, priority 2016, dated 2019).

Entries after “also recorded” stand apart in the source; their conditions may differ.

The subject of assay [1] is AMPK. Put plainly: Western blot of p-AMPK in FHs 74 Int cells. Type of assay: cell-based, human. The note with it: FHs 74 Int cells treated with oleate 1 h. Background: A western blot detects proteins with antibodies after separation by electrophoresis.
Experimental: (§2) G. Human small intestinal cells (FHs74Int) (left panel) and RIE-1 cells (right panel) were treated with the indicated concentrations of oleate for 1 h and lysates were analyzed by western blotting. […] All data are mean+/−SD. Experiments in vitro were at least repeated three times.
(§3) Tissues and cells were lysed with lysis buffer (Cell Signaling Technology), and equal amounts of protein were resolved on 4-12% NuPAGE BisTris gels (Life Technologies) and electrophoretically transferred to polyvinylidene difluoride (PVDF) membranes; the membranes were incubated with primary antibodies overnight at 4° C. followed by secondary antibodies conjugated with horseradish peroxidase. Membranes were developed using chemiluminescence (ECL) Western Blotting System from GE Healthcare Life Science (Piscataway, N.J.) and Thermo Scientific (Waltham, Mass.).
Assay [2] relates to AMPK. Put plainly: Western blot of p-AMPK in RIE-1 cells. Type of assay: cell-based, rat. Conditions: RIE-1 cells treated with oleate 1 h.
Experimental: as §2
All data are mean+/−SD. Experiments were repeated at least three times.
as §3
In assay [3] the test system is C57BL/6 mice. Put plainly: Acute SR 48692 treatment: proximal intestinal TG content after olive oil gavage. Conditions: 2.5 mg/kg ip 30 min before olive oil gavage. Type of assay: in vivo. An excerpt:
(§1) FIGS. 13A-D show graphs and images illustrating that NT promotes intestinal cell lipid absorption or accumulation, while NT deficiency reduces intestinal lipid absorption A. Proximal intestines from mice given saline, olive oil, or olive oil+SR 48692 were collected and TG levels quantified as described above (n=8). Graph presents the fold change vs. control mice. * p<0.05 vs. control mice; † p<0.05 vs. mice with olive oil only. B. Male NT^+/+ and NT^−/− mice (n=4) on normal chow were fasted overnight. Mice were injected with either saline or SR 48692 (2.5 mg/kg, i.p). Thirty min after the injection, mice were given olive oil (10 μl/g) by oral gavage and then sacrificed. The proximal small bowel was excised and TG content measured. *p<0.05 vs. saline in NT^+/+ and NT^−/− mice; † p<0.05 vs. olive oil only in NT^+/+ mice; ‡ p<0.05 vs. olive oil only in NT^+/+ mice. C. Weekly body weight was measured in male wild type C57BL/6 mice fed HFD and treated with SR 48692 (2.5 mg/kg diluted in diH2O and administered by oral gavage twice a day) or vehicle (vehicle n=12; SR 48692 n=13). BW slopes were compared: * p<0.05 vehicle vs. SR treatment. D. Weekly food intake was measured in male wild type C57BL/6 mice (n=12-13) fed HFD and chronically treated with either SR 48692 or vehicle. […] All data are mean+/−SD. […]

In assay [4] the test system is NT^+/+ and NT^−/− mice. Description: Acute SR 48692 treatment repeated in NT+/+ and NT-/- mice: proximal intestinal TG. Type of assay: in vivo. The note with it: 2.5 mg/kg ip 30 min before olive oil.
Text: as §1

Assay [5] concerns C57BL/6 mice. Put plainly: Chronic SR 48692 treatment of HFD-fed mice: body weight and food intake. Type of assay: in vivo. Conditions: wild type mice fed HFD. From the text:
FIGS. 13A-D show graphs and images illustrating that NT promotes intestinal cell lipid absorption or accumulation, while NT deficiency reduces intestinal lipid absorption A. Proximal intestines from mice given saline, olive oil, or olive oil+SR 48692 were collected and TG levels quantified as described above (n=8). Graph presents the fold change vs. control mice. * p<0.05 vs. control mice; † p<0.05 vs. mice with olive oil only. B. Male NT^+/+ and NT^−/− mice (n=4) on normal chow were fasted overnight. Mice were injected with either saline or SR 48692 (2.5 mg/kg, i.p). Thirty min after the injection, mice were given olive oil (10 μl/g) by oral gavage and then sacrificed. The proximal small bowel was excised and TG content measured. *p<0.05 vs. saline in NT^+/+ and NT^−/− mice; † p<0.05 vs. olive oil only in NT^+/+ mice; ‡ p<0.05 vs. olive oil only in NT^+/+ mice. C. Weekly body weight was measured in male wild type C57BL/6 mice fed HFD and treated with SR 48692 (2.5 mg/kg diluted in diH2O and administered by oral gavage twice a day) or vehicle (vehicle n=12; SR 48692 n=13). […] D. Weekly food intake was measured in male wild type C57BL/6 mice (n=12-13) fed HFD and chronically treated with either SR 48692 or vehicle. […]
All procedures were approved by the Institutional Animal Care and Use Committee of the University of Kentucky. […] Body weight and food intake were measured weekly. […]

Assay [6] deals with AMPK. Put plainly: Western blot of p-AMPK in proximal intestinal mucosa after olive oil gavage. Conditions: mice after olive oil gavage, with or without SR 48692 pretreatment. Type of assay: in vivo. How it is done:
FIGS. 2A-M includes images and graphs illustrating NT deficiency reduces intestinal lipid absorption. A. (left panel) Fecal triglyceride (TG) was analyzed in male mice fed a high-fat diet (HFD) for 24 wks (n=3); * p=0.05 vs NT^+/+ mice; (right panel) Fecal weight was measured in male NT^+/+ and NT^−/− mice (n=7-9) fed either normal chow (NC) or HFD for 24 wks; there was no significant difference between genotypes. B. Oil red O (ORO) staining of proximal intestines from male mice (6-mo-old) under normal chow fed with or without olive oil by gavage after overnight fasting (n=3). C. Levels of ^13C18-oleic acid (OA) in male mice (5-mo-old) under normal chow fed with ^13C18-OA mixed in olive oil by gavage after an overnight fast was analyzed by nanospray FT-MS (n=3-4). Left panel, * p<0.05 vs. NT^+/+ mice. […] D. ORO staining of proximal intestines from male mice (5-mo-old) following gavage with or without olive oil plus NT after an overnight fast (left panel); TG was quantified (right panel) (n=5). * p<0.05 vs. Saline in NT^+/+ and NT^−/− mice, respectively; † p<0.05 vs. olive oil in NT^−/− mice; ‡ p<0.05 vs. olive oil in NT^+/+ mice. […] Densitometric quantification of p-AMPK was normalized to total AMPK and is presented as fold change vs. p-AMPK in NT^+/+ (right panel, n=9). * p<0.05 vs. NT^+/+. F. Protein extracts from mucosal scrapings of samples were analyzed by western blotting (left panel). […]

The subject of assay [7] is mTORC1 and ERK1/2 signaling. Put plainly: Western blot of p-S6K1 and p-ERK1/2 in BON cells. Type of assay: cell-based, human. The note with it: pretreatment with CC 10 μM, AICAR 1 mM 3 h. How it is done:
FIGS. 16A-D show graphs and images illustrating Cross-talk of AMPK and mTORC1 signaling. A. Diagram of cross-talk of AMPK and mTORC1 signaling. B. Western blot analysis of BON cells treated with or without AICAR (left panel) or 1 mM AICAR and CC (10 μM) (right panel) for 3 h. C. NT EIA (upper panel) and western blotting (lower panel) on BON cells expressing control vector and myc-raptor S722A/S792A treated with AICAR (1 mM) for 3 h. D. NT EIA (upper panel) and western blotting (lower panel) on BON cells expressing control vector and NTC and TSC2 siRNA treated with AICAR (1 mM) for 3 h. *p<0.05 vs. control in vector, †p<0.05 vs. AICAR in vector (C); *p<0.05 vs. control in NTC siRNA, †p<0.05 vs. control in NTC siRNA, ‡ p<0.05 vs. AICAR in NTC siRNA (D). n=6. All data are mean+/−SD.
AMPK activation inhibits mTORC1 through raptor, a component of mTORC1, or TSC2, a negative regulator of mTORC1 signaling. […] Moreover, a stable BON overexpression cell line was generated with a mutant raptor vector in which both Ser722 and Ser792 (AMPK phosphorylation sites) are replaced by alanine. […] Together, these findings further indicate the interaction of AMPK, mTORC1 and ERK signaling in the regulation of NT secretion.

The test system of assay [8] is STC-1 cells. Description: NT release from STC-1 cells (NT EIA). Type of assay: cell-based, mouse. Conditions: OA 0.25 mM, phorbol myristate acetate 100 nM. An excerpt: FIGS. 15A-B show graphs and images illustrating that FFAR1 and FFAR4 agonists increase AMPK activity. A. NT IF (left panel), NT EIA (middle panel, *p<0.05 vs. control) and western blotting (right panel) of STC-1 cells. B. Real-time PCR. GAPDH was used as the internal control (BON cell expression was arbitrarily set at 1). All data are mean+/−SD.
FFAR1 (previously known as GPR40) and FFAR4 (previously known as GPR120) are medium- to long-chain FFA G-protein-coupled receptors that have been implicated in the regulation of energy homeostasis and hormone secretion.

In the case of `CCCCCCCC/C=C\CCCCCCCC(=O)[O-].[Na+]` [oleate, Oleate sodium], the p-AMPK entry in assay [1] and in assay [2] was “led to an increase in p-AMPK” throughout.

Consider `COc1cccc(OC)c1-c1cc(C(=O)NC2(C(=O)O)C3CC4CC(C3)CC2C4)nn1-c1ccnc2cc(Cl)ccc12` (stereo not shown) [SR 48692], for which the “intestinal FA absorption following olive oil gavage (proximal intestine TG)” value in assay [3] was “decreased intestinal FA absorption”. The “lipid absorption after olive oil administration” value in assay [4] (NT-/- mice) was “did not further decrease lipid absorption”. Further, in assay [4] (wild type (NT+/+) mice), the “intestinal FA absorption (as measured by TG accumulation)” value is listed as “inhibited intestinal FA absorption”. Moreover, the body weight gain entry in assay [5] (2.5 mg/kg oral gavage twice a day for 13 weeks) was “significantly attenuated body weight gain”. Besides, the “food intake (cumulative and weekly)” value in assay [5] (2.5 mg/kg oral gavage twice a day, 2.5 mg/kg) is reported as “without altering food intake; also recorded: did not show a significant difference”. In addition, in assay [6], the “p-AMPK expression in proximal intestine” value is listed as “restored the p-AMPK expression to control levels”.

`c1cc(-c2cnn3cc(-c4ccc(OCCN5CCCCC5)cc4)cnc23)ccn1` [compound C]: the “effect of AICAR on p-S6K1 and p-ERK1/2” value in assay [7] was “attenuated this effect”.

Consider `CCCCCCCCCCCCCC(=O)O[C@@H]1[C@@H](C)[C@@]2(O)[C@@H](C=C(CO)C[C@]3(O)C(=O)C(C)=C[C@@H]23)[C@@H]2C(C)(C)[C@]12OC(C)=O` [phorbol myristate acetate], for which the NT release result in assay [8] is listed as “stimulated NT release”.
